Values quoted from earlier work as cited in publication PMC9835671 (The Pediatric Infectious Disease Journal, 2022).
In brackets after ≈: the same amount, converted by molar mass. Like-named read-outs stand apart in the source and are kept apart here.

How the values were obtained:
S aureus [1] = conditions: neutropenic murine thigh infection model
S aureus [2] = system: S aureus
[3] = adults
ABSSSI = conditions: for Clinical response: microbiological ITT population
S aureus [4] = conditions: adult popPK model; 1000-mg (double-dose) and 1500-mg (single-dose) doses; MIC ≤2 mg/L
serum albumin = conditions: intravenously administered

24-hour fAUC/MIC target for bacterial stasis (S aureus [1]): 27.1 h
MIC90 (S aureus [2]; against S aureus): 0.03 µg/mL (≈ 0.0165 µM)
terminal elimination half-life (t1/2) [3]: > 14 days
bound to serum albumin (serum albumin): ~ 93%
unbound form (serum albumin): 7%
Compound: CN[C@H]1C(=O)N[C@@H]2Cc3ccc(cc3)Oc3cc4cc(c3O[C@@H]3O[C@H](C(=O)O)[C@@H](O)[C@H](O)[C@H]3NC(=O)CCCCCCCCC(C)C)Oc3ccc(cc3Cl)[C@@H](O)[C@@H]3NC(=O)[C@H](NC(=O)[C@@H]4NC(=O)[C@@H](NC2=O)c2cc(cc(O)c2Cl)Oc2cc1ccc2O)c1ccc(O)c(c1)-c1c(O[C@H]2O[C@H](CO)[C@@H](O)[C@H](O)[C@@H]2O)cc(O)cc1[C@@H](C(=O)NCCCN(C)C)NC3=O [dalbavancin]
CLSI susceptibility breakpoint (S aureus [2]; Clinical and Laboratory Standards Institute): 0.25 µg/mL
Clinical response (ABSSSI; double-dose regimen, end-of-treatment): 97.3%
Clinical response (ABSSSI; double-dose regimen, follow-up): 97.3%
Clinical response (ABSSSI; single-dose regimen, end-of-treatment): 94.8%
Clinical response (ABSSSI; single-dose regimen, follow-up): 97.4%
patients who achieved a clinical cure (ABSSSI; test-of-cure): > 96%
simulated patients predicted to achieve the stasis target (S aureus [4]): > 99%
